Reference: patent US10093675B2, “6,8-disubstituted-9-(heterocyclyl)purines, compositions containing these derivatives and their use in cosmetic and medicinal applications” (USTAV EXPERIMENTALNI BOTANIKY AV CR, V.V.I., priority 2014, dated 2018)
Where two headings read alike, the source gives them in different places.

Columns and labels:
[1] = system: excised wheat leaf tips (Triticum aestivum cv. Hereward); test: Senescence inhibition on winter wheat leaf segments (retention of chlorophyll); type: in vivo; conditions: 10^−4 mol/L; 96 hours in the dark; activity of kinetin set at 100%
In short: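 First-leaf tips from 7-day-old wheat seedlings stood with their bases in test solution for 96 h in the dark at 25° C. Chlorophyll was then extracted in hot 80% ethanol and read at 665 nm. Activity at each compound's best concentration is relative to 10^−4 M kinetin (100%), as means of five replicates.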

[2] = system: normal diploid fibroblasts BJ; test: In vitro cytotoxic activity (Calcein AM), BJ; type: cell-based, human; conditions: 72 hours, read-out: Cell line tested/IC50 (μmol/L) BJ
Source text: (§1) Because toxic compounds negatively influence metabolic processes of cells, many standard cytotoxicity assays are based on measurement of metabolisation rate of various artificial substrates. Resulting product is then quantified, for example, by means of spectrometry. The assays can be easily modified for use in 96-well plates. For evaluation of cytotoxicity of the […] of this invention, a microtiter assay based on quantification of metabolisation of Calcein AM was used. The assay is widely used in drug screening programs and in chemosensitivity testing. In live cells, Calcein AM is enzymatically hydrolysed and accumulation of resulting calcein is manifested by green fluorescence.
(§2) The following human cell lines were used for routine screening of the compounds: normal diploid fibroblasts BJ, T-lymphoblastic leukemia cell line CEM, promyelocytic leukemia cell line HL-60, erytroid leukemia cell line K-562, breast carcinoma cell line MCF-7, osteosarcoma cell line HOS and melanoma cell line G-361. The cells were maintained in Nunc/Corning 80 cm^2 plastic tissue culture flasks and cultured in cell culture medium (DMEM with 5 g/l glucose, 2 mM glutamine, 100 U/ml penicillin, 100 mmg/ml streptomycin, 10% fetal calf serum and sodium bicarbonate). The cell suspensions were prepared and diluted according to the particular cell type and the expected target cell density (2.500-30.000 cells per well based on cell growth characteristics) and pipetted (80 μl) into 96-well plates. Inoculates were allowed a pre-incubation period of 24 hours at 37° C. and 5% CO2 for stabilization. Tested compound was added in total volume of 20 μl of water at time zero. Usually, test compound was evaluated at six 3-fold dilutions. In routine testing, the highest concentration tested was 100 μM, but it could have been adjusted because of limited solubility of a compound. All drug concentrations were tested in triplicates.
(§3) Incubations of cells with the test compounds lasted for 72 hours at 37° C., in 5% CO2 atmosphere and 100% humidity. At the end of incubation period Calcein AM in PBS was added into final concentration of 1 μg/ml. After another 1 hour of incubation fluorescence (FD) was measured with the Labsystem FIA Reader Fluoroscan Ascent (UK). Growth inhibition (GI) was estimated using the following equitation: GI=(mean FDdrug exposed wells−mean FDblank)/(mean FDcontrol wells−mean FDblank)×100%. The GI50 value, the drug concentration causing 50% reduction of Calcein AM conversion, was calculated from the obtained dose response curves.

[3] = system: cytokinin-dependent tobacco callus Nicotiana tabacum L. cv. Wisconsin 38; test: Plant cell division: growth of cytokinin-dependent tobacco callus; type: cell-based; conditions: for Activity (%); (s.d.): relative activity at concentration with highest activity, 10^−6 M kinetin set at 100%; for Concentration with highest activity (mol/l): tobacco callus fresh weight increase after four weeks, tested 10^−8 M to 10^−4 M
[4] = system: erytroid leukemia cell line K-562; test: In vitro cytotoxic activity (Calcein AM), K-562; type: cell-based, human; conditions: read-out: Cell line tested/IC50 (μmol/L) K-562
Source text: as §1, §2, §3

[5] = system: T-lymphoblastic leukemia cell line CEM; test: In vitro cytotoxic activity (Calcein AM), CEM; type: cell-based, human; conditions: 72 hours, read-out: Cell line tested/IC50 (μmol/L) CEM
Source text: as §1, §2, §3

melanoma cell line G-361 = test: In vitro cytotoxic activity (Calcein AM), G-361; type: cell-based, human; conditions: read-out: Cell line tested/IC50 (μmol/L) G-361
Source text: as §1, §2, §3

[6] = system: Human diploid fibroblast BJ; test: In vitro cytotoxic activity (MTT); type: cell-based; conditions: 72 hours incubation; concentration causing 20% decrease in mitochondrial dehydrogenase activity
Experimental: MTT (metabolic tetrazolium toxicity) assay is a standard colorimetric assay for evaluation of cytotoxicity. Mitochondrial dehydrogenase activity converts yellow MTT into violet formazan which is measured by means of spectrometry.
Human diploid fibroblast BJ (passage 18-22) were seeded into 96-well plate (5.000 cells per well). After 6 hours cultivation medium (DMEM with 5 g/l glucose, 2 mM glutamine, 100 U/ml penicillin, 100 mmg/ml streptomycin, 10% fetal calf serum and sodium bicarbonate) was replaced with the cultivation medium containing test compounds in concentration range of 0-200 µM. Highest concentration was adjusted if the solubility of the compound was limiting. Every concentration was tested in pentaplicate. MTT was added to the cells after 72 hours incubation (final concentration 0.5 mg/ml) and incubation continued for another 3 hours. MTT was solubilised by DMSO and absorbance at 570 nm was measured. Growth inhibition (GI) was estimated using the following equitation: GI=(mean A drug exposed wells−mean Ablank/mean Acontrol wells−mean Ablank)×100%. The GI20 value, the drug concentration causing 20% decrease in mitochondrial dehydrogenase activity, was calculated from the obtained dose response curves.

[7] = system: detached leaves of Triticum aestivum cv. Hereward; test: Membrane lipid peroxidation (MDA, TBA method) in detached wheat leaves during dark senescence; type: in vivo; conditions: four days in the dark, Control 18.9 (±2.2)
Experimental: A typical symptom associated with senescence as a direct consequence of increased reactive oxygen species is lipid peroxidation. Therefore the levels of MDA, a decomposition product of lipid peroxidation, were measured in detached wheat leaves that were exposed to the prepared novel derivatives and kinetin for four days in the dark as described in Example 8. MDA levels were measured using a thiobarbituric acid (TBA) method. In detail, 100 mg of fresh plant material was homogenized by high speed shaking in a ball mill (MM301, Retsch, Germany) with 1 mL of 80% methanol. The crude extract was centrifuged at 10,000×g for 5 min, and 100 μL aliquot of supernatant was vortexed with 100 μL of 0.5% (w/v) TBA containing 0.1% (w/v) trichloroacetic acid, and the resulting solution was then incubated for 30 min at 95° C. The samples were quickly cooled on ice and recentrifuged for 5 min at 1000×g. The absorbance of supernatant was measured at 532 nm with background subtraction at 600 nm and the amount of MDA-TBA complex was calculated from the coefficient of absorbance 155 mM^−1cm^−1.
Seeds of winter wheat, Triticum aestivum cv. Hereward, were washed under running water for 24 hours and then sown on vermiculite soaked with Knop's solution. They were placed in the grown chamber at 25° C. with a 16/8 hours light period at […]. After 7 days, the first leaf was fully developed and the second leaf had started to grow. A tip section of the first leaf, approximately 35 mm long, was removed from 5 seedlings and trimmed slightly to a combined weight of 100 mg. The basal ends of the five leaf tips were placed in the wells of a microtiter polystyrene plate containing […] of a cytokinin solution each. The entire plate was inserted into a plastic box lined with paper tissues soaked in distilled water to prevent leaf sections from drying out. After 96 hours incubation in the dark at 25° C., the leaves were removed and chlorophyll extracted by heating at 80 C for 10 min in 5 ml of 80% ethanol (v/v). The sample volume was then restored to 5 ml by the addition of 80% ethanol (v/v). The absorbance of the extract was recorded at 665 nm. In addition, chlorophyll extracts from fresh leaves and leaf tips incubated in deionized water were measured. From the obtained data, the concentration with highest activity was selected for each compound tested. Relative activity of the compound at this concentration was calculated (see Table 6 below). The activity obtained for 10^−4 M kinetin (Kin) was set as 100%. The values shown are means of five replicates and the whole experiment was repeated twice.

[8] = system: osteosarcoma cell line HOS; test: In vitro cytotoxic activity (Calcein AM), HOS; type: cell-based, human; conditions: 72 hours, read-out: Cell line tested/IC50 (μmol/L) HOS
Source text: as §1, §2, §3

[9] = system: breast carcinoma cell line MCF-7; test: In vitro cytotoxic activity (Calcein AM), MCF-7; type: cell-based, human; conditions: read-out: Cell line tested/IC50 (μmol/L) MCF7
Source text: as §1, §2, §3

[10] = Radical scavenging activity determined by ORAC (Oxygen Radical Absorbance Capacity); type: biochemical; conditions: Mean ± SD (n = 3); net area under the curve relative to trolox, equimolar basis
Experimental: The ability of compounds to scavenge free radicals in vitro was determined by Oxygen Radical Absorbance Capacity (ORAC) method. Fluorescein (100 μL, […]) and 25 μL of compound solution were added into each working well in a 96-well microplate preincubated at 37° C. Thereafter, 25 μL of 250 mM AAPH was quickly added, microplate was shaken for 5 s and the fluorescence (Ex. 485 nm, Em. 510 nm) was read every 3 min over 90 min by using microplate reader Infinite 200 (TECAN, Switzerland). The net area under the curve was used to express antioxidant activity relative to trolox which was used as a standard.

[11] = system: human diploid fibroblasts (HDF cells; HDF25, HDF45, HDF80); test: Inhibition of human cell aging: senescent cells by beta-galactosidase staining; type: cell-based
Experimental: In this example, human diploid fibroblasts (HDF cells of various passage levels: passage 25—designated HDF25; passage 45—designated HDF45; passage 80—designated HDF80) were stained for beta-galactosidase activity. The medium used for the cell cultivation was removed the cells were washed twice in […], and fixed in 2-3 ml of fixing solution comprised of a 2% formaldehyde and 0.2% glutaraldehyde in PBS. The cells were incubated at room temperature for 5 minutes, and then washed twice with PBS. The cells were subsequently incubated at 37° C. […] In this experiment, senescent cells, but no other cells were stained blue due to the action of beta-galactosidase on the substrate.

C/C(=C\CNc1ncnc2c1nc(Cl)n2C1CCCCO1)CO (stereo not drawn) [Compound 5, (E)-8-Chloro-6-(4-hydroxy-3-methylbut-2-en-1-ylamino)-9-(tetrahydropyran-2-yl)-9H-purine]
Activity (%) (s.d.), retention of chlorophyll [1]: 118 (±5) % | IC50 ([2]; Homo sapiens, Fibroblast): > 50 µmol/L | Activity (%); (s.d.) [3]: 124 (±6) % | IC50 ([4]; Homo sapiens, K562, 72 hours): > 50 µmol/L | IC50 ([5]; Homo sapiens): > 50 µmol/L | IC50 (melanoma cell line G-361; Homo sapiens, G-361, 72 hours): > 50 µmol/L | GI20 [6]: >100 µM | MDA (nmol/g FW) [7]: 13.2 (±1.5) nmol/g FW | IC50 ([8]; Homo sapiens): > 50 µmol/L | IC50 ([9]; Homo sapiens, MCF7, 72 hours): > 50 µmol/L

Oc1cccc(CNc2ncnc3c2nc(Cl)n3C2CCCCO2)c1 (stereo not drawn) [Compound 9]
Activity (%) (s.d.), retention of chlorophyll [1]: 115 (±4) % | IC50 [2]: > 50 µmol/L | Activity (%); (s.d.) [3]: 108 (±3) % | Concentration with highest activity (mol/l) [3]: 10^−6-10^−4 mol/l | IC50 ([4]; 72 hours): > 50 µmol/L | IC50 [5]: > 50 µmol/L | IC50 (melanoma cell line G-361; 72 hours): > 50 µmol/L | GI20 [6]: >100 µM | MDA (nmol/g FW) [7]: 12.4 (±1.3) nmol/g FW | IC50 [8]: > 50 µmol/L | IC50 ([9]; 72 hours): > 50 µmol/L

Oc1cccc(CNc2ncnc3c2nc(Br)n3C2CCCCO2)c1 (stereo not drawn) [Compound 29]
Activity (%) (s.d.), retention of chlorophyll [1]: 117 (±2) % | IC50 [2]: > 50 µmol/L | Activity (%); (s.d.) [3]: 112 (±3) % | Concentration with highest activity (mol/l) [3]: 10^−6-10^−4 mol/l | IC50 ([4]; 72 hours): > 50 µmol/L | IC50 [5]: > 50 µmol/L | IC50 (melanoma cell line G-361; 72 hours): > 50 µmol/L | GI20 [6]: >100 µM | MDA (nmol/g FW) [7]: 12.3 (±1.4) nmol/g FW | IC50 [8]: > 50 µmol/L | IC50 ([9]; 72 hours): > 50 µmol/L

Ic1nc2c(NCc3ccccc3)ncnc2n1C1CCCCO1 (stereo not drawn) [Compound 46, 8-Iodo-6-benzylamino-9-(tetrahydropyran-2-yl)-9H-purine]
MDA (nmol/g FW) [7]: 10.9 (±1.0) nmol/g FW | ORAC (compound/trolox ratio) [10]: 1.4 ± 0.0

CN(C)c1nc2c(NCc3ccco3)ncnc2n1C1CCCCO1 (stereo not drawn) [Compound 80, 6-Furfurylamino-8-dimethylamino-9-(tetrahydropyran-2-yl)-9H-purine]
MDA (nmol/g FW) [7]: 11.3 (±0.9) nmol/g FW | ORAC (compound/trolox ratio) [10]: 2.2 ± 0.1

C=CCNc1nc2c(NCc3ccco3)ncnc2n1C1CCCCO1 (stereo not drawn) [Compound 100, 8-Allylamino-6-furfurylamino-9-(tetrahydropyran-2-yl)-9H-purine]
MDA (nmol/g FW) [7]: 10.2 (±1.1) nmol/g FW | ORAC (compound/trolox ratio) [10]: 32.4 ± 3.2

Nc1nc2c(NCc3ccco3)ncnc2n1C1CCCCO1 (stereo not drawn) [Compound 102, 6-furfurylamino-8-amino-9-(tetrahydropyran-2-yl)-9H-purine]
MDA (nmol/g FW) [7]: 10.4 (±0.9) nmol/g FW | ORAC (compound/trolox ratio) [10]: 4.5 ± 0.1

CC(C)=CCNc1nc(Cl)nc2c1nc(N)n2C1CCCCO1 (stereo not drawn) [Compound 107, 8-Amino-6-(3-methylbut-2-en-1-ylamino)-chloro-9-(tetrahydropyran-2-yl)-9H-purine]
MDA (nmol/g FW) [7]: 10.5 (±0.5) nmol/g FW | ORAC (compound/trolox ratio) [10]: 24.4 ± 1.5

NCCNc1nc2c(NCc3ccco3)ncnc2n1C1CCCCO1 (stereo not drawn) [Compound 170, 8-(2-Aminoethylamino)-6-furfurylamino-9-(tetrahydropyran-2-yl)-9H-purine]
MDA (nmol/g FW) [7]: 10.4 (±0.7) nmol/g FW | ORAC (compound/trolox ratio) [10]: 181.3 ± 5.2

c1coc(CNc2ncnc3c2ncn3C2CCCCO2)c1 (stereo not drawn) [KTHP, kinetin-9-tetrahydropyranyl, reference compound]
SENESCENT CELLS (%) HDF25 ([11]; human diploid fibroblasts passage 25, beta-galactosidase staining): 3% | SENESCENT CELLS (%) HDF45 ([11]; human diploid fibroblasts passage 45, beta-galactosidase staining): 4% | SENESCENT CELLS (%) HDF80 ([11]; human diploid fibroblasts passage 80, beta-galactosidase staining): 26% | ORAC (compound/trolox ratio) [10]: 0.6 ± 0.1
